Test system: spinal cord transcriptome
Assay: RNA-Seq of spinal cord tissue from 2B/- and 2B/+ mice
Assay type: in vivo, mouse
Settings: 2B-Veh vs 2B-RG3039

Nc1nc(N)c2c(OCC3CCN(Cc4c(Cl)cccc4Cl)CC3)cccc2n1 [RG3039]
log2(fold-change) Slc16a3: -0.7903
log2(fold-change) Slc16a9: -0.6931
log2(fold-change) Slc24a4: -0.7011
log2(fold-change) Slc25a34: -1.809
log2(fold-change) Slc38a5: 1.057
log2(fold-change) Slc43a2: -0.4622
log2(fold-change) Smim3: -1.398
log2(fold-change) Sox7: 0.9813
log2(fold-change) Sspo: -0.7538
log2(fold-change) Steap3: 0.5769
log2(fold-change) Sult1a1: -1.637
log2(fold-change) T2: -0.674
log2(fold-change) Thbd: 0.6475
log2(fold-change) Tjap1: -0.5932
log2(fold-change) Tmem52: -2.209
log2(fold-change) Tmem82: -2.075
log2(fold-change) Tnc: 1.175
log2(fold-change) Tnfrsf11b: 0.7466
log2(fold-change) Tnfsf10: 1.316
log2(fold-change) Top2a: 0.5734
log2(fold-change) Trim17: -0.4978
log2(fold-change) Trim63: -1.544
log2(fold-change) Txnip: -1.514
log2(fold-change) Ube2c: 0.4464
log2(fold-change) Uhrf1: 0.8234
log2(fold-change) Vegfc: 0.6909
log2(fold-change) Wfdc18: -1.041
log2(fold-change) Wnt7a: 1.48
log2(fold-change) Zbtb16: -1.136
log2(fold-change) Zfand4: -0.6603
log2(fold-change) (gene 1110032A03Rik): -0.2821
log2(fold-change) (gene Acsbg1): -0.2673
log2(fold-change) (gene Adam15): -0.3484
log2(fold-change) (gene Adi1): -0.4121
log2(fold-change) (gene Adra1b): 0.2729
log2(fold-change) (gene Aff1): -0.2665
log2(fold-change) (gene Ak3): -0.3763
log2(fold-change) (gene Aldh1l1): -0.3854
log2(fold-change) (gene Aldoc): -0.3499
log2(fold-change) (gene Amz1): 0.2752
log2(fold-change) (gene Ap5z1): -0.356
log2(fold-change) (gene Aqp11): -0.2575
log2(fold-change) (gene Arsk): -0.2986
log2(fold-change) (gene B3gnt9): -0.2654
log2(fold-change) (gene Bahd1): 0.2771
log2(fold-change) (gene Boc): -0.2865
log2(fold-change) (gene Calr): 0.1683
log2(fold-change) (gene Ccdc41os1): -0.2491
log2(fold-change) (gene Ccdc117): 0.2458
log2(fold-change) (gene Ccnyl1): 0.3378
log2(fold-change) (gene Cdc25a): 0.2456
log2(fold-change) (gene Clmp): 0.2336
log2(fold-change) (gene Cntfr): -0.3422
log2(fold-change) (gene Col9a3): 0.1971
log2(fold-change) (gene Cpt1c): -0.278
log2(fold-change) (gene Crabp1): 0.2782
log2(fold-change) (gene Cryz): -0.1892
log2(fold-change) (gene Daam2): -0.2024
log2(fold-change) (gene Darc): 0.1786
log2(fold-change) (gene Decr1): -0.3016
log2(fold-change) (gene Dnm2): -0.2166
log2(fold-change) (gene Efnb3): -0.3581
log2(fold-change) (gene Elmo2): 0.364
log2(fold-change) (gene Eltd1): -0.2627
log2(fold-change) (gene Fkbp10): 0.3165
log2(fold-change) (gene Fmnl3): 0.3298
log2(fold-change) (gene Foxo3): -0.2832
log2(fold-change) (gene Gpt2): -0.2642
log2(fold-change) (gene Gstt1): -0.358
log2(fold-change) (gene Hapln2): -0.2887
log2(fold-change) (gene Hmgcr): 0.3374
log2(fold-change) (gene Hopx): 0.2486
log2(fold-change) (gene Hsdl2): -0.1941
log2(fold-change) (gene Itfg3): -0.4076
log2(fold-change) (gene Ivd): -0.3584
log2(fold-change) (gene Kctd3): -0.3771
log2(fold-change) (gene Kctd15): 0.2608
log2(fold-change) (gene Kpna2): 0.269
log2(fold-change) (gene Lpcat1): 0.2395
log2(fold-change) (gene Lrrc1): -0.4303
log2(fold-change) (gene Lxn): 0.285
log2(fold-change) (gene Maged2): 0.2097
log2(fold-change) (gene Megf9): -0.283
log2(fold-change) (gene Megf11): 0.3115
log2(fold-change) (gene Mmp15): 0.2397
log2(fold-change) (gene Msi1): 0.3899
log2(fold-change) (gene Mterfd3): -0.3526
log2(fold-change) (gene Ngef): 0.3246
log2(fold-change) (gene Nid1): 0.3048
log2(fold-change) (gene Npl): 0.2963
log2(fold-change) (gene Nr2f1): 0.3426
log2(fold-change) (gene Nrbp2): -0.2827
log2(fold-change) (gene Nrep): 0.3402
